From patent US20210276967A1 (OSPEDALE SAN RAFFAELE S.R.L., priority 2018, published 2021)
Several values for one entry are separate records, joined by “and”; a condition that tells them apart may be missing. Equal values may be shown once. Read-outs that look alike come from different tables or passages of the source.

Test: Mouse PK studies (plasma and liver exposure)
Assay type: in vivo, C57BL/6 mice
Design: Liver [mM]: unit not given here
Details: for Plasma concentrations / concentration at 24 h / concentration at 8 h / concentration at 0.25 h / concentration at 0.5 h / concentration at 1 h / concentration at 2 h / concentration at 4 h / concentration at 6 h: PO 100 mpk in 0.5% methocell; for AUC(0-t): read-out: AUC (0-24 h); for AUC: read-out: AUC Extrap
From the text: C57BL/6 mice are used to evaluate plasma and liver exposure and pharmacokinetic parameters after intravenous and oral administration (from 2 to 200 mpk according to the compound tested and the administration route). 12 (+3 spare) healthy C57BL/6N male mice are obtained from Charles River S.p.A. Calco (Como), Italy. Animals are ordered weighing 21 to 27 grams and approximately 7 weeks old. Before and during testing, animals are housed in Individual Ventilated Cages (IVCs Tecniplast) with sawdust as bedding (three animals for cage). Cages are identified by a color code label recording the sample ID, animal number and details of treatment (route, dose and sex). Animals are identified by unique number on tail via permanent marker. Animal room controls are set to maintain temperature within the range from 20 to 24° C. and relative humidity within the range from 40 to 70% and an average daily airflow of at least 10 fresh air changes per hour. Actual conditions are recorded. The room is lit by fluorescent tubes controlled to give an artificial cycle of 12 hours light and 12 hours dark each day. All animals are weighed immediately before testing. Animals are dosed IV in a fed state and PO in a fasted state.
Compounds (from 0.4 to 20 mg/mL according to the compound tested and the administration route) are dissolved in DMSO/PEG400/H2O (20/60/20) for IV administration and 0.5% Methocel E50 or 20% Hydroxypropyl-β-cyclodextrin (HP-β-CD) in citrate buffer pH=5 for PO administration. The appropriate dose volume of the test item, calculated for each animal according to body weight (administration volume: 5 mL/kg for IV or 5 mL/kg or 10 mL/kg for PO), is administered by injection into lateral tail vein using 2.5 mL syringe (BD Plasipak) for IV administration and administered orally by gavage using 5 mL Syringe (BD Plastipak) for PO administration. Whole blood sample (about 0.200 mL) is collected via retro orbital sinus using Isoflurane as anesthetic. Blood is collected in Li-Heparin Sartsted® gel tubes appropriately labeled indicating animal number and time point. Tubes are put in wet ice and then centrifuged within 15 minutes from blood collection. Centrifugation is performed using a Heraeus Multifuge® 3S/3S-R set, at 2200×g for 10 minutes, internal temperature is kept at 4° C. After the centrifugation, about 100 μL of plasma samples are obtained and immediately transferred to 1.5 mL Eppendorf tubes and frozen at −20° C. (24/24 h alarmed). Whole blood samples are collected at different times point (0-0.25-0.5-1-2-4-6-8-24 hours) after dosing and kept frozen (−20° C.) until assayed by LC/MS/MS. Livers are explanted at different time point (0-8-24 hours), washed with saline solution, transferred to Eppendorf tubes and frozen at −80° C. until assayed by LC/MS/MS. Analytical procedures: Plasma samples are extracted using Liquid Handling Robot Hamilton StarPlus by protein precipitation with acetonitrile. Then the samples are centrifuged (3000 rpm×15 min at 4° C.) and the supernatant transferred and dried under nitrogen. The samples are reconstituted in water/acetonitrile 90/10 or 50/50 and then injected directly into an UPLC column. Sample analyses are performed using an API 4000 or/and API 5000 or/and API 4000QTrap Mass Spectrometer interfaced via the Turbo Ion Spray (ESI) to an LC system consisting of an Acquity UPLC Sample Manager autosampler and Acquity UPLC Binary Solvent Manager Pump. The results are calculated using Analyst Software linear regression with 1/x*x weighting. The Assay Precision is calculated for the Quality Controls by Watson Lims database.
Cmax is the maximum compound concentration from oral dosing; Tmax is the time at which Cmax is reached; AUC (0-24) is the area under the concentration vs time curve from 0 to 24 hours; AUC extrap is the area under the curve (AUC) extrapolated to infinity, from dosing time based on the last observed concentration. […]

[1] = male, C57BL/6N, mouse, plasma, po, 100 mg/kg, plasma, PO 100 mg/kg in 0.5% methocell, mice, Mean
[2] = male, C57BL/6N, mouse, plasma, po, 100 mg/kg, plasma, PO 100 mg/kg in 0.5% methocell, mice, individual subject
[3] = plasma, PO 100 mg/kg in 0.5% methocell, mice, individual subject, 100 mg/kg

SMILES: Cc1cc(N)c(S(N)(=O)=O)cc1C(=O)Nc1cc(F)c(F)c(F)c1 [Example E17, 4-amino-2-methyl-5-sulfamoyl-N-(3,4,5-trifluorophenyl)benzamide]
- Liver [mM] (PO 25 mg/kg in 0.5% methocell, mice): 317
- Liver [mM] (PO 75 mg/kg in 0.5% methocell, mice): 747
- Liver [mM] (PO 150 mg/kg in 0.5% methocell, mice): 677
- Kp (male, C57BL/6N, mouse, liver, PO 25 mg/kg in 0.5% methocell, mice): 15.9
- Kp (male, C57BL/6N, mouse, liver, PO 75 mg/kg in 0.5% methocell, mice): 14.4
- Kp (male, C57BL/6N, mouse, liver, PO 150 mg/kg in 0.5% methocell, mice): 13.8

SMILES: Nc1ccc(C(=O)Nc2cc(F)c(F)c(F)c2)cc1S(N)(=O)=O [Example E3, 4-amino-3-sulfamoyl-N-(3,4,5-trifluorophenyl)benzamide]
- Plasma concentrations (0.25 Hours, individual subject, 100 mg/kg): 5.05 µM and 3.95 µM
- Plasma concentrations (0.5 Hours, individual subject, 100 mg/kg): 7.23 µM and 10.6 µM
- Plasma concentrations (1 Hours, individual subject, 100 mg/kg): 17.2 µM and 9.61 µM
- Plasma concentrations (2 Hours, individual subject, 100 mg/kg): 10.7 µM and 17.0 µM
- Plasma concentrations (4 Hours, individual subject, 100 mg/kg): 11.2 µM and 10.6 µM
- Plasma concentrations (6 Hours, individual subject, 100 mg/kg): 10.5 µM and 9.06 µM
- Plasma concentrations (8 Hours, individual subject, 100 mg/kg): 10.4 µM and 12.1 µM
- concentration at 24 h (8 Hours, individual subject, 100 mg/kg, read-out: Liver concentrations): 125.87 µM and 119.96 µM
- Plasma concentrations (24 Hours, individual subject, 100 mg/kg): 0.268 µM and 0.184 µM and 0.0502 µM
- concentration at 24 h (24 Hours, individual subject, 100 mg/kg, read-out: Liver concentrations): 0.6272 µM and 3.0342 µM and 1.8500 µM
- Kp at 8 h (male, C57BL/6N, mouse, liver, 100 mpk, 8 h after PO administration, read-out: liver levels higher than plasma (ratio liver/plasma concentration)): 13
- concentration at 8 h (male, C57BL/6N, mouse, liver, po, 100 mg/kg, 8 Hours, Mean, read-out: Liver concentrations): 129 µM
- concentration at 8 h (male, C57BL/6N, mouse, liver, po, 100 mg/kg, 8 Hours, individual subject, read-out: Liver concentrations): 143 µM
- concentration at 24 h (male, C57BL/6N, mouse, liver, po, 100 mg/kg, 24 Hours, Mean, read-out: Liver concentrations): 2 µM
- concentration at 0.25 h (male, C57BL/6N, mouse, plasma, po, 100 mg/kg, 0.25 Hours, Mean, read-out: Plasma concentrations): 5 µM
- concentration at 0.25 h (male, C57BL/6N, mouse, plasma, po, 100 mg/kg, 0.25 Hours, individual subject, read-out: Plasma concentrations): 6.15 µM
- concentration at 0.5 h (male, C57BL/6N, mouse, plasma, po, 100 mg/kg, 0.5 Hours, Mean, read-out: Plasma concentrations): 9 µM
- concentration at 0.5 h (male, C57BL/6N, mouse, plasma, po, 100 mg/kg, 0.5 Hours, individual subject, read-out: Plasma concentrations): 7.77 µM
- concentration at 1 h (male, C57BL/6N, mouse, plasma, po, 100 mg/kg, 1 Hours, Mean, read-out: Plasma concentrations): 12 µM
- concentration at 1 h (male, C57BL/6N, mouse, plasma, po, 100 mg/kg, 1 Hours, individual subject, read-out: Plasma concentrations): 10.2 µM
- concentration at 2 h (male, C57BL/6N, mouse, plasma, po, 100 mg/kg, 2 Hours, Mean, read-out: Plasma concentrations): 14 µM
- concentration at 2 h (male, C57BL/6N, mouse, plasma, po, 100 mg/kg, 2 Hours, individual subject, read-out: Plasma concentrations): 13 µM
- concentration at 4 h (male, C57BL/6N, mouse, plasma, po, 100 mg/kg, 4 Hours, Mean, read-out: Plasma concentrations): 11 µM
- concentration at 4 h (male, C57BL/6N, mouse, plasma, po, 100 mg/kg, 4 Hours, individual subject, read-out: Plasma concentrations): 10.9 µM
- concentration at 6 h (male, C57BL/6N, mouse, plasma, po, 100 mg/kg, 6 Hours, Mean, read-out: Plasma concentrations): 10 µM
- concentration at 6 h (male, C57BL/6N, mouse, plasma, po, 100 mg/kg, 6 Hours, individual subject, read-out: Plasma concentrations): 11.9 µM
- concentration at 8 h (male, C57BL/6N, mouse, plasma, po, 100 mg/kg, 8 Hours, Mean, read-out: Plasma concentrations): 10 µM
- concentration at 8 h (male, C57BL/6N, mouse, plasma, po, 100 mg/kg, 8 Hours, individual subject, read-out: Plasma concentrations): 9.01 µM
- concentration at 24 h (male, C57BL/6N, mouse, plasma, po, 100 mg/kg, 24 Hours, Mean, read-out: Plasma concentrations): 0.2 µM
- Cmax (male, C57BL/6N, mouse, plasma, po, 100 mg/kg, PO 100 mg/kg in 0.5% methocell, mice, Mean): 16 µM
- Cmax (male, C57BL/6N, mouse, plasma, po, 100 mg/kg, PO 100 mg/kg in 0.5% methocell, mice, individual subject): 17.2 µM
- AUC(0-t) [1]: 172 µM·h
- AUC [1]: 173 µM·h
- Tmax (male, C57BL/6N, mouse, plasma, po, 100 mg/kg, plasma, PO 100 mg/kg in 0.5% methocell, mice, Mean, read-out: Tmax): 1.7 h
- AUC(0-t) [2]: 171 µM·h
- AUC [2]: 172 µM·h
- Tmax (male, C57BL/6N, mouse, plasma, po, 100 mg/kg, plasma, PO 100 mg/kg in 0.5% methocell, mice, individual subject, read-out: Tmax): 1 h
- clearance (male, C57BL/6N, mouse, plasma, mice, read-out: in vivo clearance): 10 mL/min/kg
- AUC (0-24 h) [3]: 186 µM·h and 160 µM·h
- AUC Extrap [3]: 186.4 µM·h and 161.7 µM·h
- Cmax [3]: 17 µM and 13 µM
- Tmax [3]: 2.00 h
